From paper PMC7403315, “Cyclic peptide FXII inhibitor provides safe anticoagulation in a thrombosis model and in artificial lungs” (Nature Communications, 2020)
Where “and” joins values, the source holds several entries; their conditions need not be identical. Equal values may be shown once. Starred links: 1 amine or outer side, 2 acyl side, 3 side chain; linkers in the order of their positions; H or OH if unused. Positions of bridges follow the written chain, without caps; N, C: chain ends. Non-standard residues stand in square brackets, D forms with d. Residues, ends and D or L forms follow the SMILES beside them. TATA = O=C(CC[*:1])N1CN(C(=O)CC[*:2])CN(C(=O)CC[*:3])C1; Phe(4-F) = N[C@@H](Cc1ccc(F)cc1)C(=O)O; β3hR = N=C(N)NCCC[C@H](N)CC(=O)O

Legend:
Type in all cases: biochemical
Recombinant mouse FXII = molecular target: T1, Recombinant mouse FXII (Mus musculus, UniProt Q80YC5); experiment: Inhibition of recombinant FXIIa (rFXIIa); details: read-out: Residual activity (%), Recombinant mouse FXII, individual plates
T1 sequence (Q80YC5 355-597 limits assumed): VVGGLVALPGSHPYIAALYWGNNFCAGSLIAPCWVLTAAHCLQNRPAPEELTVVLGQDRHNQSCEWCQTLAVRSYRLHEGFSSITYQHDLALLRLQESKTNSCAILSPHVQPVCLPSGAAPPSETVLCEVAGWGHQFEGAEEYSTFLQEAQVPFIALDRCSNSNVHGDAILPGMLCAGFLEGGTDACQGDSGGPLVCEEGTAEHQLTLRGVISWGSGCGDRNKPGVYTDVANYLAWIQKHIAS
T1 sequence (Q80YC5 20-354 limits assumed): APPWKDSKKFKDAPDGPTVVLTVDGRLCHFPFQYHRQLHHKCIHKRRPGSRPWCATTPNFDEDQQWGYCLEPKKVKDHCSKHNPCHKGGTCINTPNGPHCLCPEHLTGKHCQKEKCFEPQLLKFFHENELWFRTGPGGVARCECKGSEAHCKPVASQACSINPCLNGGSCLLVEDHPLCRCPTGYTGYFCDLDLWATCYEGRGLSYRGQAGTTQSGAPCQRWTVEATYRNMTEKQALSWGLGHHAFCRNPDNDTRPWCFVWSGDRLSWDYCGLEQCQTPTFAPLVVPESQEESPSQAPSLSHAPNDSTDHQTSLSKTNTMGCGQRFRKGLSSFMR

human β-FXIIa = molecular target: T2, human β-FXIIa (Homo sapiens, UniProt P00748); experiment: FXIIa protease inhibition assay with fluorogenic substrate Boc-Gln-Gly-Arg-AMC
T2 construct: human β-FXIIa (Molecular Innovations cat #); purchased Molecular Innovations HFXIIAB; host or cells: human blood
T2 sequence (P00748 373-615 limits assumed, other chains not shown): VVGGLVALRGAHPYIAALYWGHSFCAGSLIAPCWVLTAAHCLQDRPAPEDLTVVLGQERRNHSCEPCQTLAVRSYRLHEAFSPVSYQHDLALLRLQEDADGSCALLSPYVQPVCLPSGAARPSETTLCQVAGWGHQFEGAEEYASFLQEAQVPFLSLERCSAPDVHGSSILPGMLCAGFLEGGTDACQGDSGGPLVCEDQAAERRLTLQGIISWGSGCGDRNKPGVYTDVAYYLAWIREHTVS
How it was run: (§1)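 Mouse α-FXIIa or human β-FXIIa (0.4 nM final) was preincubated with bicyclic peptide for 10 min at 25 °C in Tris-Cl buffer with 1% DMSO. Residual activity was then read over 30 min with 50 µM Boc-Gln-Gly-Arg-AMC (ex 368/em 467 nm). IC50 came from sigmoidal fits, and Ki was derived by Cheng-Prusoff.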

Mouse α-FXIIa = molecular target: T3, Mouse α-FXIIa (Mus musculus, UniProt Q80YC5); experiment: as above
T3 construct: Mouse α-FXIIa; purchased Molecular Innovations MFXIIA
T3 sequence (Q80YC5 355-597 limits assumed): T1 sequence (Q80YC5 355-597 limits assumed)
T3 sequence (Q80YC5 20-354 limits assumed): T1 sequence (Q80YC5 20-354 limits assumed)
How it was run: as §1

With `CC(C)C[C@@H]1NC(=O)[C@H](CCC(N)=O)NC(=O)[C@H](Cc2c[nH]cn2)NC(=O)[C@@H]2CSCCC(=O)N3CN(CN(C3)C(=O)CCSC[C@H](NC(=O)[C@@H](CO)NC(=O)[C@H](N)CCCNC(=N)N)C(=O)N[C@@H](Cc3ccc(F)cc3)C(=O)N[C@@H](CCCNC(=N)N)C(=O)N[C@@H](CC(C)C)C(=O)N3CCC[C@H]3C(=O)N2)C(=O)CCSC[C@@H](C(N)=O)NC(=O)C[C@H](CCCNC(=N)N)NC1=O` [FXII900] (H-[dR][dS]C[Phe(4-F)]RLPCHQL[β3hR]C-NH2; linker 3-8-13 via TATA) the remaining activity at 30.52 pM (Recombinant mouse FXII; peptide 0.030518 nM) was 94.5%, the remaining activity at 61.04 pM (Recombinant mouse FXII; peptide 0.061035 nM) was 95% and the remaining activity at 0.00012207 µM (Recombinant mouse FXII; peptide 0.12207 nM) was 85.5%. For the same molecule, the remaining activity at 0.000244141 µM (Recombinant mouse FXII; peptide 0.244141 nM) was 77.6%, the remaining activity at 0.000488281 µM (Recombinant mouse FXII; peptide 0.488281 nM) was 61.6% and the remaining activity at 0.000976563 µM (Recombinant mouse FXII; peptide 0.976563 nM) was 37.8%. The remaining activity at 0.00195312 µM (Recombinant mouse FXII; peptide 1.95312 nM) was 15.3%, the remaining activity at 0.0078125 µM (Recombinant mouse FXII; peptide 7.8125 nM) was 0.768% and the remaining activity at 0.015625 µM (Recombinant mouse FXII; peptide 15.625 nM) was 0%. The remaining activity at 0.03125 µM (Recombinant mouse FXII; peptide 31.25 nM) was 0%, the Ki (human β-FXIIa) was 0.37 ± 0.04 nM and the “Residual activity of human FXIIa” value (human β-FXIIa; inhibitor 0.030518 nM, 30.52 pM) was 89.8015%. The “Residual activity of human FXIIa” value (human β-FXIIa; inhibitor 0.03125 nM, 31.25 pM) was 91.2184% and 98.3306%, the “Residual activity of human FXIIa” value (human β-FXIIa; inhibitor 0.061035 nM, 61.04 pM) was 87.3761% and the “Residual activity of human FXIIa” value (human β-FXIIa; inhibitor 0.0625 nM, 62.5 pM) was 92.1225% and 95.5725%. The “Residual activity of human FXIIa” value (human β-FXIIa; inhibitor 0.12207 nM, 0.00012207 µM) was 78.5763%, the “Residual activity of human FXIIa” value (human β-FXIIa; inhibitor 0.125 nM, 0.000125 µM) was 82.8895% and 92.0812% and the “Residual activity of human FXIIa” value (human β-FXIIa; inhibitor 0.244141 nM, 0.000244141 µM) was 65.9451%. For the same molecule, the “Residual activity of human FXIIa” value (human β-FXIIa; inhibitor 0.488281 nM, 0.000488281 µM) was 44.4485%, the “Residual activity of human FXIIa” value (human β-FXIIa; inhibitor 0.5 nM, 0.0005 µM) was 54.1096% and 47.3759% and the “Residual activity of human FXIIa” value (human β-FXIIa; inhibitor 1 nM, 0.001 µM) was 29.6346% and 29.527%. For the same molecule, the “Residual activity of human FXIIa” value (human β-FXIIa; inhibitor 1.95312 nM, 0.00195312 µM) was 9.983% and 4.833%, the “Residual activity of human FXIIa” value (human β-FXIIa; inhibitor 2 nM, 0.002 µM) was 13.0658% and 11.4779% and the “Residual activity of human FXIIa” value (human β-FXIIa; inhibitor 3.90625 nM, 0.00390625 µM) was 2.681% and 0.3074%. For the same molecule, the “Residual activity of human FXIIa” value (human β-FXIIa; inhibitor 4 nM, 0.004 µM) was 2.623% and 4.603% and 9.7%, the “Residual activity of human FXIIa” value (human β-FXIIa; inhibitor 7.8125 nM, 0.0078125 µM) was 1.017% and -0.1178% and the “Residual activity of human FXIIa” value (human β-FXIIa; inhibitor 8 nM, 0.008 µM) was 0.8848% and 2.033% and 3.493%. The “Residual activity of human FXIIa” value (human β-FXIIa; inhibitor 15.625 nM, 0.015625 µM) was 1.594% and 0.3357%, the “Residual activity of human FXIIa” value (human β-FXIIa; inhibitor 0.976562 / 0.976563 nM, 0.000976563 µM) was 20.4026% and the remaining activity at 30.52 pM (human β-FXIIa; read-out: Residual activity of human FXIIa, inhibitor 0.030518 nM) was 92.8%. The remaining activity at 31.25 pM (human β-FXIIa; read-out: Residual activity of human FXIIa, inhibitor 0.03125 nM) was 90.7%, the remaining activity at 61.04 pM (human β-FXIIa; read-out: Residual activity of human FXIIa, inhibitor 0.061035 nM) was 102% and the remaining activity at 62.5 pM (human β-FXIIa; read-out: Residual activity of human FXIIa, inhibitor 0.0625 nM) was 89.8%. The remaining activity at 0.00012207 µM (human β-FXIIa; read-out: Residual activity of human FXIIa, inhibitor 0.12207 nM) was 77.3%, the remaining activity at 0.000125 µM (human β-FXIIa; read-out: Residual activity of human FXIIa, inhibitor 0.125 nM) was 80.4% and the remaining activity at 0.000244141 µM (human β-FXIIa; read-out: Residual activity of human FXIIa, inhibitor 0.244141 nM) was 66.6%. The remaining activity at 0.000488281 µM (human β-FXIIa; read-out: Residual activity of human FXIIa, inhibitor 0.488281 nM) was 51.8%, the remaining activity at 0.0005 µM (human β-FXIIa; read-out: Residual activity of human FXIIa, inhibitor 0.5 nM) was 46.7% and the remaining activity at 0.001 µM (human β-FXIIa; read-out: Residual activity of human FXIIa, inhibitor 1 nM) was 24.6%. For the same molecule, the remaining activity at 0.002 µM (human β-FXIIa; read-out: Residual activity of human FXIIa, inhibitor 2 nM) was 8.92%, the remaining activity at 0.03125 µM (human β-FXIIa; read-out: Residual activity of human FXIIa, inhibitor 31.25 nM) was 0% and the remaining activity at 0.000976563 µM (human β-FXIIa; read-out: Residual activity of human FXIIa, inhibitor 0.976562 / 0.976563 nM) was 29.9%. It also gave a Ki (Mouse α-FXIIa) of 0.45 ± 0.11 nM.
